Experimental data reported in patent US12528778B2, “Microbiocidal derivatives” (SYNGENTA CROP PROTECTION AG, priority 2019, dated 2026).

Columns and labels:
[1] = test system: Mycosphaerella graminicola (Septoria tritici); experiment: Mycosphaerella graminicola (Septoria tritici) / liquid culture (Septoria blotch); type: cell-based; conditions: Zymoseptoria tritici, PDB liquid culture, 24° C., growth inhibition determined photometrically 4-5 days after application, vs untreated control
Procedure: Example B12: Mycosphaerella graminicola (Septoria tritici)/Liquid Culture (Septoria Blotch) Conidia of the fungus from cryogenic storage are directly mixed into nutrient broth (PDB potato dextrose broth). After placing a (DMSO) solution of test compound into a microtiter plate (96-well format), the nutrient broth containing the fungal spores is added. The test plates are incubated at 24° C. and the inhibition of growth is determined photometrically 4-5 days after application. […] […]-48, and P-49.

[2] = test system: Alternaria solani; experiment: Alternaria solani / tomato / leaf disc (early blight); type: in vivo; conditions: foliar, tomato leaf disks cv. Baby, inoculated 2 days after application, assessed 5-7 days after application, vs untreated control
Procedure: Example B1: Alternaria solani/Tomato/Leaf Disc (Early Blight) Tomato leaf disks cv. Baby are placed on agar in multiwell plates (24-well format) and sprayed with the formulated test compound diluted in water. The leaf disks are inoculated with a spore suspension of the fungus 2 days after application. The inoculated leaf disks are incubated at 23° C./21° C. […] […]-43, and P-44.

[3] = test system: Magnaporthe grisea (Pyricularia oryzae); experiment: whole plant or invertebrate; type: in vivo; conditions: foliar, read-out: control of Magnaporthe grisea
[4] = test system: Mycosphaerella arachidis (Cercospora arachidicola); experiment: Mycosphaerella arachidis (Cercospora arachidicola) / liquid culture (early leaf spot); type: cell-based; conditions: PDB liquid culture, 24° C., growth inhibition determined photometrically 4-5 days after application, vs untreated control
Procedure: Example B6: Mycosphaerella arachidis (Cercospora arachidicola)/Liquid Culture (Early Leaf Spot) Conidia of the fungus from cryogenic storage are directly mixed into nutrient broth (PDB potato dextrose broth). After placing a (DMSO) solution of test compound into a microtiter plate (96-well format), the nutrient broth containing the fungal spores is added. The test plates are incubated at 24° C. and the inhibition of growth is determined photometrically 4-5 days after application. […] […]-44, and P-48.

[5] = test system: Monographella nivalis (Microdochium nivale); experiment: Monographella nivalis (Microdochium nivale) / liquid culture (foot rot cereals); type: cell-based; conditions: PDB liquid culture, 24° C., growth inhibition determined photometrically 4-5 days after application, vs untreated control
Procedure: (§1) Example B5: Monographella nivalis (Microdochium nivale)/Liquid Culture (Foot Rot Cereals) Conidia of the fungus from cryogenic storage are directly mixed into nutrient broth (PDB potato dextrose broth). After placing a (DMSO) solution of test compound into a microtiter plate (96-well format), the nutrient broth containing the fungal spores is added. The test plates are incubated at 24° C. and the inhibition of growth is determined photometrically 4-5 days after application. […] […]-49, and P-50.

[6] = test system: Blumeria graminis f. sp. tritici (Erysiphe graminis f. sp. tritici); experiment: Blumeria graminis f. sp. tritici / wheat / leaf disc preventative (powdery mildew on wheat); type: in vivo; conditions: foliar, wheat leaf segments cv. Kanzler, inoculated 1 day after application, assessed 6-8 days after application, vs untreated control
Procedure: Example B3: Blumeria graminis f. sp. tritici (Erysiphe graminis f. so. tritici)/Wheat/Leaf Disc Preventative (Powdery Mildew on Wheat) Wheat leaf segments cv. Kanzler are placed on agar in a multiwell plate (24-well format) and sprayed with the formulated test compound diluted in water. The leaf disks are inoculated by shaking powdery mildew infected plants above the test plates 1 day after application. The inoculated leaf disks are incubated at 20°° C. and 60% rh under a light regime of 24 h darkness followed by 12 h light/12 h darkness in a climate chamber and the activity of a compound is assessed as percent disease control compared to untreated when an appropriate level of disease damage appears on untreated check leaf segments (6-8 days after application). […]-45, and P-50.

[7] = test system: Glomerella lagenarium (Colletotrichum lagenarium); experiment: Glomerella lagenarium (Colletotrichum lagenarium) / liquid culture (anthracnose); type: cell-based; conditions: Colletotrichum orbiculare, PDB liquid culture, 24° C., growth inhibition measured photometrically 3-4 days after application, vs untreated control
Procedure: as §1, with “B2: Glomerella lagenarium (Colletotrichum lagenarium)/Liquid” for “B5: Monographella nivalis (Microdochium nivale)/Liquid”, “(Anthracnose)” for “(Foot Rot Cereals)”, “measured” for “determined”, “3-4” for “4-5”

[8] = test system: Puccinia recondita f. sp. tritici; experiment: Puccinia recondita f. sp. tritici / wheat / leaf disc preventative (brown rust); type: in vivo; conditions: foliar, wheat leaf segments cv. Kanzler, inoculated 1 day after application, assessed 7-9 days after application, vs untreated control
Procedure: Example B8: Puccinia recondita f. sp. tritici/Wheat/Leaf Disc Preventative (Brown rust) Wheat leaf segments cv. Kanzler are placed on agar in multiwell plates (24-well format) and sprayed with the formulated test compound diluted in water. The leaf disks are inoculated with a spore suspension of the fungus 1 day after application. The inoculated leaf segments are incubated at 19° C. and 75% rh under a light regime of 12 h light/12 h darkness in a climate cabinet and the activity of a compound is assessed as percent disease control compared to untreated when an appropriate level of disease damage appears in untreated check leaf segments (7-9 days after application).

[9] = test system: Botryotinia fuckeliana (Botrytis cinerea); experiment: Botryotinia fuckeliana (Botrytis cinerea) / liquid culture (gray mould); type: cell-based; conditions: 20 ppm; Vogels broth liquid culture, 24° C., growth inhibition determined photometrically 3-4 days after application; vs untreated control
Procedure: Example B13: Botryotinia fucleliana (Botrytis cinerea)/Liquid Culture (Gray Mould) Conidia of the fungus from cryogenic storage are directly mixed into nutrient broth (Vogels broth). After placing a (DMSO) solution of test compound into a microtiler plate (96-well format), the nutrient broth containing the fungal spores is added. The test plates are incubated at 24° C. and the inhibition of growth is determined photometrically 3-4 days after application. […] P-25.

COc1ncc(Nc2cc(F)cc(F)c2)nc1C(=O)NCC1(C)CCOC2(CCC2)C1 (centres unmarked) [Compound P-22, 6-(3,5-difluoroanilino)-3-methoxy-N-[(8-methyl-5-oxaspiro[3.5]nonan-8-yl)methyl]pyrazine-2-carboxamide]
≥ 80%: inhibition of growth at 20 ppm [1] | pest or weed control at 200 ppm [2] | pest or weed control at 200 ppm [3] | inhibition of growth at 20 ppm [4] | inhibition of growth at 20 ppm [5] | pest or weed control at 200 ppm [6] | inhibition of growth at 20 ppm [7] | pest or weed control at 200 ppm [8]

COc1ncc(Nc2cc(F)cc(F)c2)nc1C(=O)NCC1(C(F)(F)F)CC1 [Compound P-25, 6-(3,5-difluoroanilino)-3-methoxy-N-[[1-(trifluoromethyl)cyclopropyl]methyl] pyrazine-2-carboxamide]
at least 80%: control of Botryotinia fuckeliana [9]
≥ 80%: inhibition of growth at 20 ppm [1] | pest or weed control at 200 ppm [2] | pest or weed control at 200 ppm [3] | inhibition of growth at 20 ppm [4] | inhibition of growth at 20 ppm [5] | pest or weed control at 200 ppm [6] | inhibition of growth at 20 ppm [7] | pest or weed control at 200 ppm [8]

COc1ncc(Nc2cc(F)cc(F)c2)nc1C(=O)NC(C)(C)C [Compound P-38, N-tert-butyl-6-(3,5-difluoroanilino)-3-methoxy-pyrazine-2-carboxamide]
≥ 80%: inhibition of growth at 20 ppm [1] | pest or weed control at 200 ppm [2] | pest or weed control at 200 ppm [3] | inhibition of growth at 20 ppm [4] | inhibition of growth at 20 ppm [5] | pest or weed control at 200 ppm [6] | inhibition of growth at 20 ppm [7] | pest or weed control at 200 ppm [8]

COc1ncc(Nc2cc(F)cc(F)c2)nc1C(=O)NCC(C)(C)C [Compound P-39, 6-(3,5-difluoroanilino)-N-(2,2-dimethylpropyl)-3-methoxy-pyrazine-2-carboxamide]
≥ 80%: inhibition of growth at 20 ppm [1] | pest or weed control at 200 ppm [2] | pest or weed control at 200 ppm [3] | inhibition of growth at 20 ppm [4] | inhibition of growth at 20 ppm [5] | pest or weed control at 200 ppm [6] | inhibition of growth at 20 ppm [7] | pest or weed control at 200 ppm [8]

COc1ncc(Nc2cc(F)cc(F)c2)nc1C(=O)NC1CCC1(C)C (centres unmarked) [Compound P-43, 6-(3,5-difluoroanilino)-N-(2,2-dimethylcyclobutyl)-3-methoxy-pyrazine-2-carboxamide]
≥ 80%: inhibition of growth at 20 ppm [1] | pest or weed control at 200 ppm [2] | pest or weed control at 200 ppm [3] | inhibition of growth at 20 ppm [4] | inhibition of growth at 20 ppm [5] | pest or weed control at 200 ppm [6] | inhibition of growth at 20 ppm [7] | pest or weed control at 200 ppm [8]
